The values that follow come from patent US4365989A, “2-Thiocyanomethylthio-4,4-dialkyl-5-substituted-thiazoline fungicides” (Chevron Research Company, priority 1982, dated 1982).

As usually defined, the inhibition is the drop in the measured response relative to a control, in per cent.

The test system of one assay is Lemna minor. The assay is described as follows: Aquatic weeds control, Lemna. It counts as in vivo. Conditions: 7 to 10 days, read-out: Algicidal Activity % Control Lemna. The procedure: (§1) Representative compounds of the invention were tested as aquatic herbicides and algicides by the following method. The weed test species were Lemna minor, Elodea canadensis and the algae used was Spirulina maxima.
(§2) An acetone solution of the test compound and a small amount of an alkylarylpolyoxyethylene glycol-containing surfactant was prepared. This solution was mixed with a nutrient solution in quantity sufficient to give a concentration of 2 ppm. Eight oz. plastic cups were filled with 150 ml of this solution. A sample of the test, Lemna and Elodea, was added together to each cup. Forty ml of Spirulina culture with the 2 ppm treatment was placed in 11/2 oz plastic cups (#4 glass vials used after June 9, 1980). The containers were then placed in an illuminated environment maintained at a temperature of about 20° C. for incubation. The containers were observed periodically for growth (as compared to an untreated check). The effectiveness of the test compound was determined based on a final observation of growth after 7 to 10 days. The results of the test on a 0-to-100 basis--0 indicating no effectiveness and 100 indicating complete effectiveness--are reported in Table IV.

The subject of assay [1] is Mustard (Brassica arvensis). The assay is described as follows: Pre-emergent herbicidal test, Mustard. It counts as in vivo. Particulars: 504 h, pre-emergence, 33 micrograms/cm^2, 3 weeks. The procedure:
(§3) An acetone solution of the test compound was prepared by mixing 750 mg of the compound, 220 mg of a nonionic surfactant and 25 ml of acetone. This solution was added to approximately 125 ml of water containing 156 mg of surfactant.
(§4) Seeds of the test vegetation were planted in a pot of […] and the test solution was sprayed uniformly onto the soil surface at a dose of 33 micrograms/cm^2. The pot was watered and placed in a greenhouse. […] At the end of this period, the herbicidal effectiveness of the compound was rated based on the physiological observations. A 0-to-100 scale was used, 0 representing no phytotoxicity, 100 representing complete kill.

The subject of assay [2] is Crabgrass (Digitaria sanguinalis). The assay is described as follows: Pre-emergent herbicidal test, Crabgrass. It counts as in vivo. Conditions: 504 h, pre-emergence, 33 micrograms/cm^2, 3 weeks. As for the experimental part: as §3, §4
The next assay concerns Pythium Ultimum. Nature of the assay: Mycelial inhibition, Pythium. It counts as cell-based. Particulars: Globisporangium ultimum, 24 hours, relative to standard DIFOLATAN
The procedure:
(§5) A number of the compounds of the present invention were evaluated for in-vitro fungicidal effectiveness by means of a mycelial inhibition test. This test is designed to measure the fungitoxic activity of fungicidal chemicals in terms of their degree of inhibition of mycelium growth. Each compound to be tested was dissolved in acetone to 500 ppm concentration. Paper strips were infused with the particular mycelium growth by covering the paper with a potato dextrose broth culture of mycelial suspension. The papers were then placed on potato dextrose agar plates and sprayed by means of a microsprayer with the fungicidal solution. The treated paper strips were incubated at 25° C. and the data is taken after 24 hours. Fungicidal activities are measured by a zone of inhibited mycelial growth from the center of the paper strip. The effectiveness of the compounds tested for fungicidal activity is reported in Table IIa for those compounds which were effective in inhibiting mycelial growth. The activity is reported in terms of [formula]

The test system of assay [3] is Lambsquarter (Chenopodium album). The assay is described as follows: Post-emergent herbicidal test, Lambsquarter. It counts as in vivo. Conditions: 504 h, post-emergence, 33 micrograms/cm^2, 3 weeks, read-out: Herbicidal Activity Post-Emergence % Control L'Qtr.
The subject of assay [4] is Crabgrass (Digitaria sanguinalis). Nature of the assay: Post-emergent herbicidal test, Crabgrass. It counts as in vivo. Particulars: 504 h, post-emergence, 33 micrograms/cm^2, 3 weeks.
For assay [5], the system named is Watergrass (Ethinochloa crusgalli). The assay is described as follows: Pre-emergent herbicidal test, Watergrass. It counts as in vivo. Conditions: 504 h; pre-emergence; 33 micrograms/cm^2; 3 weeks. As for the experimental part: as §3, §4
The next assay relates to Fusarium Moniliforme. The assay is described as follows: Mycelial inhibition, Fusarium. It counts as cell-based. Particulars: Fusarium verticillioides, 24 hours, relative to standard DIFOLATAN
The procedure:
as §5

A further assay deals with Rhizoctonia solani. The assay is described as follows: Mycelial inhibition, Rhizoctonia. It counts as cell-based. Conditions: 24 hours, relative to standard DIFOLATAN, read-out: Mycelial inhibition, % Standard, Rhizoc. As for the experimental part:
as §5

The subject of a further assay is Septoria apii. It counts as in vivo. Particulars: 250 ppm; celery (Utah) plants.
The next assay has as its system Elodea canadensis. Nature of the assay: Aquatic weeds control, Elodea. It counts as in vivo. Conditions: 7 to 10 days, read-out: Algicidal Activity % Control Elodea. The procedure: as §1, §2
The test system of assay [6] is Pigweed (Amaranthus retraflexus). The assay is described as follows: Pre-emergent herbicidal test, Pigweed. It counts as in vivo. Particulars: 504 h, pre-emergence, 33 micrograms/cm^2, 3 weeks. The procedure:
as §3, §4

The subject of another assay is Botrytis Cineria. Nature of the assay: Mycelial inhibition, Botrytis. It counts as cell-based. Conditions: 24 hours, relative to standard DIFOLATAN
The procedure: as §5

Assay [7] deals with Mustard (Brassica arvensis). Nature of the assay: Post-emergent herbicidal test, Mustard. It counts as in vivo. Particulars: 504 h, post-emergence, 33 micrograms/cm^2, 3 weeks.
Another assay has as its system Phytophthora infestans. Nature of the assay: whole plant or invertebrate. It counts as in vivo. Conditions: in Solanum lycopersicum, read-out: % Control Tom. L. Bl.
Assay [8] deals with Pigweed (Amaranthus retraflexus). The assay is described as follows: Post-emergent herbicidal test, Pigweed. It counts as in vivo. Particulars: 504 h, post-emergence, 33 micrograms/cm^2, 3 weeks.
The test system of assay [9] is Watergrass (Ethinochloa crusgalli). The assay is described as follows: Post-emergent herbicidal test, Watergrass. Particulars: 504 h; post-emergence; 33 micrograms/cm^2; 3 weeks. It counts as in vivo.
In assay [10] the test system is Lambsquarter (Chenopodium album). The assay is described as follows: Pre-emergent herbicidal test, Lambsquarter. It counts as in vivo. Particulars: 504 h, pre-emergence, 33 micrograms/cm^2, 3 weeks, read-out: Herbicidal Activity Pre-Emergence % Control L'Qtr. As for the experimental part: as §3, §4
Another assay relates to Aspergillus Niger. Nature of the assay: Mycelial inhibition, Aspergillus. Conditions: 24 hours, relative to standard DIFOLATAN, read-out: Mycelial inhibition, % Standard, Asper. It counts as cell-based. The procedure:
as §5

Another assay concerns Plasmopara viticola. Nature of the assay: Grape Downy Mildew control, detached grape leaves. It counts as in vivo. Conditions: in Vitis vinifera, Vitis vinifera Emperor detached leaves, read-out: % Control Grape D.M. As for the experimental part:
The compounds of the invention were tested for the control of the grape downy mildew organism Plasmopara viticola. Detached leaves, between 70 and 85 mm in diameter, of 7-week old Vitis vinifera cultivar Emperor grape seedlings were used as hosts. The leaves were sprayed with a 250 ppm solution of the test compound in acetone. The sprayed leaves were dried, inoculated with a spore suspension of the organism, placed in a humid environmental chamber and incubated at 66° to 68° F. and about 100% relative humidity. After incubation for two days, the plants were then held in a greenhouse seven to nine days; then the amount of disease control was determined. The percent disease control provided by a given gest compound was based on the percent disease reduction relative to untreated check plants.

A further assay concerns Spirulina maxima. The assay is described as follows: Algae control, Spirulina. It counts as cell-based. Particulars: Limnospira maxima, 7 to 10 days, read-out: Algicidal Activity % Control Spirulina. As for the experimental part: as §1, §2
The test system of assay [11] is Soybean. Nature of the assay: Pre-emergent herbicidal test, Soybean. It counts as in vivo. Particulars: Glycine max, 504 h; pre-emergence; 33 micrograms/cm^2; 3 weeks; read-out: Herbicidal Activity Pre-Emergence % Control Soybean. As for the experimental part:
as §3, §4

The test system of assay [12] is Soybean. The assay is described as follows: Post-emergent herbicidal test, Soybean. It counts as in vivo. Particulars: Glycine max, 504 h; post-emergence; 33 micrograms/cm^2; 3 weeks; read-out: Herbicidal Activity Post-Emergence % Control Soybean.

Molecules are shown by their SMILES.

As to `CC1(C)N=C(SCSC#N)SC1=CCl` [Compound 3], the activity at 2 ppm amounted to 40% with Lemna minor, 90% in the assay with Elodea canadensis and 40% with Spirulina maxima. Further, the pest or weed control at 33 µg/cm2 in [1] worked out at 15%; in assay [2] it was 0%; in assay [3], 0%; in [4], 0%; in assay [5], 0%; in assay [6], 35%. Besides, the pest or weed control at 33 µg/cm2 in [7] came out at 0%; in assay [8] it was 0%; in assay [9], 0%; in [10] it was 25%. Besides, the inhibition at 500 ppm in the assay with Pythium Ultimum was determined as 40%; with Fusarium Moniliforme, 115%; in the assay with Rhizoctonia solani, 55%; in the assay with Botrytis Cineria it was 64%; in the assay with Aspergillus Niger, 69%. Moreover, the “% Control Cel. L. Bl.” value in the assay on Septoria apii amounted to 15%. Further, the pest or weed control at 250 ppm is 21% with Phytophthora infestans and 79% with Plasmopara viticola. Moreover, the plant injury at 33 µg/cm2 with Soybean [11] and with Soybean [12] was 0% in each case.
In the case of `CC1(C)N=C(SCSC#N)SC1=CBr` [Compound 4], the activity at 2 ppm in the assay on Lemna minor amounted to 35%; in the assay with Elodea canadensis it was 80%; in the assay with Spirulina maxima, 30%. Also, the pest or weed control at 33 µg/cm2 in [1], in assay [2], in [3], in assay [4], in [5] and in [6] was 0% throughout. For the same molecule, the pest or weed control at 33 µg/cm2 in assay [7], in [8], in [9] and in [10] was 0% throughout. The inhibition at 500 ppm in the assay with Pythium Ultimum amounted to 14%; in the assay with Fusarium Moniliforme, 77%; in the assay on Rhizoctonia solani, 92%; in the assay on Botrytis Cineria, 36%; in the assay on Aspergillus Niger, 63%. For the same molecule, in the assay on Septoria apii, the “% Control Cel. L. Bl.” value stood at 23%. Besides, the pest or weed control at 250 ppm worked out at 0% in the assay with Phytophthora infestans and 100% in the assay on Plasmopara viticola. In addition, the plant injury at 33 µg/cm2 with Soybean [11] and in the assay with Soybean [12] was 0% throughout.
